Laboratory results reported in patent US8173668B1 (Alcon Research, Ltd., priority 2007, dated 2012).

Tests used:
[1] = biological target: T1, B2-receptors in h-TM cells (Homo sapiens, UniProt P30411); experiment: [Ca2+]i mobilization (FLIPR) in h-TM cells, agonist mode; format: cell-based; conditions: h-TM cells, mean ± SEM
T1 construct: B2-receptor proteins in h-TM, h-CM and h-NPE cells; endogenous in cells; host or cells: human trabecular meshwork (h-TM), human ciliary muscle (h-CM) and human non-pigmented ciliary epithelial (h-NPE) cells
T1 sequence (P30411 1-391): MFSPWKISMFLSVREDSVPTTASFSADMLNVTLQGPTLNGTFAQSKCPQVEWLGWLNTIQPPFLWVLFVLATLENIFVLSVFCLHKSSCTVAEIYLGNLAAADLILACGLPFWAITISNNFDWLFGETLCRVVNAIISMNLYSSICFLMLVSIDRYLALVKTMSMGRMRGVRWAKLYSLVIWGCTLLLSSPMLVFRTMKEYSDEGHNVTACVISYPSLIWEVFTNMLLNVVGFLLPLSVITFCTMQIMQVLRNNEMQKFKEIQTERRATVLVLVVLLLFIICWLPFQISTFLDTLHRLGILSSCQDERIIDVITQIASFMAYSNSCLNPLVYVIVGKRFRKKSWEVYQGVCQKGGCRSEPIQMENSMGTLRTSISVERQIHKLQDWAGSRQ
Protocol: (§1) On the day of the experiment, one vial of FLIPR Calcium Assay Kit dye is re-suspended in 50 mL of a FLIPR buffer consisting of Hank's Balanced Salt Solution (HBSS), 20 mM HEPES, and 2.5 mM probenecid, pH 7.4. Cells are loaded with the calcium-sensitive dye by addition of an equal volume (50 μL) to each well of the 96-well plate and incubated with dye for 1 h at 23° C. After this time, the test compound plate and cell plate are placed in the FLIPR instrument. At the beginning of an experimental run, a signal test is performed to check the basal fluorescence signal from the dye-loaded cells and the uniformity of the signal across the plate. The basal fluorescence is adjusted between 8000-12000 counts by modifying the exposure time, the camera F-stop, or the laser power. Instrument settings for a typical assay are the following: laser power 0.3-0.6 W, camera F-stop F/2, and exposure time 0.4 sec.
(§2) Fluorescence data are collected in real-time at 1.0 sec intervals for the first 60 secs and at 6.0 sec intervals for an additional 120 secs. […] The data are then analyzed using an automated, iterative, sigmoidal curve-fitting computer program to obtain the potency and intrinsic activities of the test agents as previously described (Sharif et al. J. Pharmacol. Exp. Ther. 286: 1094-1102, 1998; Sharif et al. Invest. Ophthalmol. Vis. Sci. 39:2562-2571, 1998; Kelly et al. J. Pharmacol. Exp. Ther. 304: 238-245, 2003). The sources of materials and reagents for such assays can be found in the references cited above.

[2] = biological target: T2, B2-receptors in h-CM cells (Homo sapiens, UniProt P30411); experiment: [Ca2+]i mobilization (FLIPR) in h-CM cells, agonist mode; format: cell-based; conditions: h-CM cells, mean ± SEM
T2 construct: B2-receptor proteins in h-TM, h-CM and h-NPE cells; endogenous in cells; host or cells: human trabecular meshwork (h-TM), human ciliary muscle (h-CM) and human non-pigmented ciliary epithelial (h-NPE) cells
T2 sequence (P30411 1-391): T1 sequence (P30411 1-391)
Protocol: as §1, §2

[3] = biological target: T3, B2-receptors in h-NPE cells (Homo sapiens, UniProt P30411); experiment: [Ca2+]i mobilization (FLIPR) in h-NPE cells, agonist mode; format: cell-based; conditions: h-NPE cells, mean ± SEM
T3 construct: B2-receptor proteins in h-TM, h-CM and h-NPE cells; endogenous in cells; host or cells: human trabecular meshwork (h-TM), human ciliary muscle (h-CM) and human non-pigmented ciliary epithelial (h-NPE) cells
T3 sequence (P30411 1-391): T1 sequence (P30411 1-391)
Protocol: as §1, §2

h-CM cells = experiment: MMP activity in h-CM cells after 24 hour exposure; format: cell-based, human; conditions: 1 μM
Protocol: As with FP-class prostanoids, the IOP-lowering effects of BK may involve the stimulation of production of various MMPs that in turn digest the extracellular matrix (ECM) to promote outflow and thus lower IOP (Mietz et al., Invest. Ophthalmol. Vis. Sci. 44: 5182-5188, 2003; Webb et al., J. Ocular Pharmacol. Ther. 22: 310-316, 2006). Cells isolated from human or animal ocular or non-ocular tissues, or cells expressing recombinant (preferably human) BK receptors are seeded in 48-wells culture plates and allowed to reach confluence. […] BK (100 nM) can be used a positive control compound. After this time the supernatant from each well is concentrated 20-fold (Centricon Concentrators; Millipore Corp., Bedford, Mass.). Equivalent volumes of media are then loaded onto 12% sodium dodicyl sulfate polyacrylamide gels, where the secreted proteins are separated according to their molecular weights by standard SDS-polyacrylamide gel electrophoresis protocols and transferred onto nitrocellulose paper. The level of MMP-1, MMP-2, MMP-3 and MMP-9 is then determined by immunoblot analysis with rabbit polyclonal anti-MMP antibodies. Bands are visualized by the addition of anti-rabbit horseradish peroxidase-conjugated secondary antibodies (New England Biolabs, Inc.; Beverly, Mass.) and enhanced chemiluminescent reagents (Pierce Biotechnology, Inc., Rockford, Ill.) (Mietz et al., Invest. Ophthalmol. Vis. Sci. 44: 5182-5188, 2003; Webb et al., J. Ocular Pharmacol. Ther. 22: 310-316, 2006). BK agonists should stimulate the production of some or all of MMP-1, MMP-2, MMP-3 and MMP-9. […] However, BK agonists with lower potencies than the above limits, whether partial or full agonists, can still be considered useful ocular hypotensive agents and may be useful as such.
Enhancement of such MMP synthesis and release by h-CM in response to FR-190997 may explain the efficacious IOP-lowering observed with this BK agonist in the glaucomatous monkey eyes (see below).

[4] = read-out: Potency (EC50), [Ca2+]i mobilization
[5] = read-out: Intrinsic Activity (Emax, % max relative to BK)

Emax ([1]; HTM, read-out: Intrinsic Activity (Emax, % max relative to BK)): 86%
EC50 [1, 4]: 167 ± 29 nM
Emax [2, 5]: 63%
EC50 [2, 4]: 174 ± 21 nM
Emax [3, 5]: 32%
EC50 [3, 4]: 384 ± 39 nM
SMILES: CNC(=O)c1ccc(/C=C/C(=O)NCC(=O)N(C)c2ccc(Cl)c(COc3cccc4c(OCc5ccccn5)cc(C)nc34)c2Cl)cc1 [FR-190997]
MMP-1 activity (h-CM cells): 59 % above basal levels
MMP-2 activity (h-CM cells): not MMP-2 activity
MMP-3 activity (h-CM cells): 96 % above basal levels
